In patent publication US9668481B2, “Triazole derivatives” (priority 2013, dated 2017):
Like-named read-outs stand apart in the source and are kept apart here. Marks after values point to notes of the source that are not given here.

Key:
Sphaerotheca fuliginea = test: In vivo preventive test on Sphaerotheca fuliginea (powdery mildew on cucurbits); conditions: gherkin plants, preventive spray, evaluated 15 days after inoculation
Method: (§1) The young plants of gherkin are treated by spraying the active ingredient prepared as described above. Control plants are treated only with an aqueous solution of acetone/Dimethyl sulfoxide/Tween®. After 24 hours, the plants are contaminated by spraying the leaves with an aqueous suspension of Sphaerotheca fuliginea spores.

Uromyces appendiculatus = test: In vivo preventive test on Uromyces appendiculatus (bean rust); conditions: bean plants, preventive spray, evaluated 11 days after inoculation
Method: as §1, with “bean” for “gherkin”, “Uromyces appendiculatus” for “Sphaerotheca fuliginea”

Puccinia recondita = test: In vivo preventive test on Puccinia recondita (brown rust on wheat); conditions: 500 ppm of active ingredient; wheat plants, preventive spray; evaluated 11 days after inoculation
Method: as §1, with “wheat” for “gherkin”, “Puccinia recondita” for “Sphaerotheca fuliginea”

Pyrenophora teres = test: In vivo preventive test on Pyrenophora teres (net blotch on barley); conditions: 500 ppm of active ingredient; barley plants, preventive spray; evaluated 14 days after inoculation
Method: as §1, with “barley” for “gherkin”, “Pyrenophora teres” for “Sphaerotheca fuliginea”

[1] = system: Blumeria graminis fsp. hordei; test: Blumeria test (barley)/preventive; assay type: in vivo; conditions: 500 ppm of active ingredient, preventive, evaluated 7 days after inoculation
Method: (§2) Solvent: 49 parts by weight of N,N-dimethylacetamide Emulsifier: 1 part by weight of alkylaryl polyglycol ether To produce a suitable preparation of active compound, 1 part by weight of active compound or active compound combination is mixed with the stated amounts of solvent and emulsifier, and the concentrate is diluted with water to the desired concentration. To test for preventive activity, young plants are sprayed with the preparation of active compound or active compound combination at the stated rate of application. After the spray coating has been dried, the plants are dusted with spores of Blumeria graminis fsp. hordei. The plants are placed in the greenhouse at a temperature of approximately 18° C. and a relative atmospheric humidity of approximately 80% to promote the development of mildew pustules.

Septoria tritici = test: In vivo preventive test on Septoria tritici (leaf spot on wheat); conditions: 500 ppm of active ingredient; wheat plants, preventive spray; evaluated 24 days after inoculation
Method: as §1, with “wheat” for “gherkin”, “Septoria tritici” for “Sphaerotheca fuliginea”

[2] = system: Fusarium nivale (var. majus); test: Fusarium nivale (var. majus)-test (wheat)/preventive; assay type: in vivo; conditions: 500 ppm of active ingredient, preventive, evaluated 5 days after inoculation
Method: as §2, with “slightly injured by using a sandblast and afterwards they are sprayed” for “dusted”, “a conidia suspension” for “spores”, “Fusarium nivale (var. majus).” for “Blumeria graminis fsp. hordei. The plants are placed in the greenhouse at a temperature of approximately 18° C. and a relative atmospheric humidity of approximately 80% to promote the development of mildew pustules.”

Leptosphaeria nodorum = Leptosphaeria nodorum test (wheat)/preventive; assay type: in vivo; conditions: 500 ppm of active ingredient, preventive, evaluated 8 days after inoculation
Method: as §2, with “sprayed” for “dusted”, “a spore suspension” for “spores”, “Leptosphaeria nodorum. […]” for “Blumeria graminis fsp. hordei.”, “22°” for “18°”, “80%.” for “80% to promote the development of mildew pustules.”

Botrytis cinerea = test: In vivo preventive test on Botrytis cinerea (grey mould); conditions: 100 ppm of active ingredient; gherkin plants, preventive spray; evaluated 4 to 5 days after inoculation
Method: as §1, with “Botrytis cinerea” for “Sphaerotheca fuliginea”, “spores. The contaminated gherkin plants are incubated for 4 to 5 days at 17° C. and at 90% relative humidity.” for “spores.”

[3] = method [a]: LC-MS at pH 2.7, 0.1% formic acid in water / acetonitrile gradient
[4] = method [b]: LC-MS at pH 7.8, 0.001 molar ammonium hydrogen carbonate in water / acetonitrile gradient

Compound | LogP (pH 2.7) | LogP [3] | other results
CC(C)(C)C(O)(Cc1nc(Cl)ccc1Cl)Cn1cncn1 (centres unmarked) [Example I-33] | 2.82^[a] | – | –
CC(C)(C)C1(Cc2ccnc(Cl)c2)CO1 (centres unmarked) [XII-12] | – | 3.06^[a] | –
CC(C)(C)C1(Cc2ccnc(Cl)c2F)CO1 (centres unmarked) [XII-20] | – | 3.37^[a] | –
CC(C)(C)C1(Cc2cc(Cl)ncc2F)CO1 (centres unmarked) [XII-15] | – | 3.42^[a] | –
Cc1cccc(CC(O)(Cn2cncn2)C(C)(C)C)n1 (centres unmarked) [Example I-23] | 0.63^[a] | – | –
CCC(C)(C)C1(Cc2ccncc2Cl)CO1 (centres unmarked) [XII-17] | – | 3.33^[a] | –
CC(C)(C)C(O)(Cc1cccc(Cl)n1)Cn1cncn1 (centres unmarked) [Example I-13] | 2.30^[a] | – | –
CC(C)(C)C(O)(Cc1cc(Cl)nc(Cl)c1)Cn1cncn1 (centres unmarked) [Example I-9] | 2.64^[a] | – | Eff. % (Sphaerotheca fuliginea; 100 ppm of active ingredient): 97%
Cc1cnc(CC(O)(Cn2cncn2)C(C)(C)C)c(Cl)n1 (centres unmarked) [Example I-20] | 2.21^[a] | – | –
CC(C)C(C)(C)C1(Cc2ccncc2F)CO1 (centres unmarked) [XII-9] | – | 3.19^[a] | –
CC(C)C(C)(C)C1(Cc2cc(Cl)ncc2F)CO1 (centres unmarked) [XII-13] | – | 4.34^[a] | –
CC(C)(C)C(O)(Cc1ccc2ccccc2n1)Cn1cncn1 (centres unmarked) [Example I-8] | – | 1.51^[a] | Eff. % (Sphaerotheca fuliginea; 100 ppm of active ingredient): 79%
CC(C)(C)C(O)(Cc1ccnc(Cl)c1)Cn1cncn1 (centres unmarked) [Example I-15] | 1.93^[a] | – | Eff. % (Sphaerotheca fuliginea; 100 ppm of active ingredient): 100%; Eff. % (Uromyces appendiculatus; 100 ppm of active ingredient): 91%
Cc1ncc(CC(O)(Cn2cncn2)C(C)(C)C)nc1Cl (centres unmarked) [Example I-19] | 2.10^[a] | – | –
CCC(C)(CC)C(=O)Cc1ccncc1Cl [Example V-5] | – | 3.04^[a] | –
CC(C)(C)C(=O)Cc1cnc2ccccc2c1 [Example V-2] | – | 1.60^[a] | –
CC(C)(C)C1(Cc2cnc3ccccc3c2)CO1 (centres unmarked) [XII-2] | – | 1.86^[a] | –
CCC(C)(C)C1(Cc2ccncc2F)CO1 (centres unmarked) [XII-8] | – | 2.76^[a] | –
CCOC(C)(C)C(O)(Cc1ccncc1Cl)Cn1cncn1 (centres unmarked) [Example I-32] | 1.90 | – | Eff. % (Puccinia recondita): 83%; Eff. % (Sphaerotheca fuliginea; 500 ppm of active ingredient): 98%; Eff. % (Uromyces appendiculatus; 500 ppm of active ingredient): 99%; LogP (pH 7.8): 2.04
CCCC(C)(C)C1(Cc2ccncc2Cl)CO1 (centres unmarked) [XII-23] | – | 2.03^[a] | –
CC(C)C(C)(C)C1(Cc2ccncc2Cl)CO1 (centres unmarked) [XII-16] | – | 3.75^[a] | –
CCC(C)(C)C1(Cc2ccnc(Cl)c2)CO1 (centres unmarked) [XII-10] | – | 3.51^[a] | –
OC(Cc1ccncc1Cl)(CC1CC1)Cn1cncn1 (centres unmarked) [Example I-30] | 1.43^[a] | – | Eff. % (Puccinia recondita): 94%; Eff. % (Sphaerotheca fuliginea; 500 ppm of active ingredient): 100%; Eff. % (Uromyces appendiculatus; 500 ppm of active ingredient): 100%; Eff. % (Pyrenophora teres): 71%; Eff. % [1]: 100%; Eff. % (Septoria tritici): 100%; Eff. % [2]: 100%; Eff. % (Leptosphaeria nodorum): 88%
CC(C)(C)C(=O)Cc1ccncc1 [Example V-8] | – | 0.35 | LogP [4]: 1.75
CC(C)(C)C(=O)Cc1ncc(Cl)cc1Cl [Example V-1] | – | 3.33^[a] | –
CC(C)(C)C(O)(Cc1ccnc2ccccc12)Cn1cncn1 (centres unmarked) [Example I-10] | 1.17^[a] | – | Eff. % (Sphaerotheca fuliginea; 100 ppm of active ingredient): 97%; Eff. % (Uromyces appendiculatus; 100 ppm of active ingredient): 85%

Compound | LogP (pH 2.7) | LogP [3] | other results
CC(C)(C)C(O)(Cc1c(Cl)cncc1Cl)Cn1cncn1 (centres unmarked) [Example I-28] | 2.34^[a] | – | –
CC(C)(C)C(O)(Cc1nccnc1Cl)Cn1cncn1 (centres unmarked) [Example I-18] | 2.01^[a] | – | –
CC(C)(C)C1(Cc2ncc(Cl)cc2Cl)CO1 (centres unmarked) [XII-1] | – | 4.06^[a] | –
CC(C)(C)C1(Cc2cc(F)ncc2Cl)CO1 (centres unmarked) [XII-18] | – | 3.65^[a] | –
CC(C)(C)C(O)(Cc1cncc(Oc2ccc(Cl)cc2)n1)Cn1cncn1 (centres unmarked) [Example I-25] | 2.98^[a] | – | Eff. % (Puccinia recondita): 71%
CC(C)(C)C(O)(Cc1ccc(Cl)nc1)Cn1cncn1 (centres unmarked) [Example I-2] | 1.98^[b]; 1.98^[a] | – | Eff. % (Sphaerotheca fuliginea; 500 ppm of active ingredient): 98%; Eff. % (Uromyces appendiculatus; 500 ppm of active ingredient): 77%; LogP (pH 7.8): 1.98^[b]; 1.98^[a]
CC(C)(C)C(=O)Cc1ccc(Cl)nc1 [Example V-3] | – | 2.47^[a] | –
CC(C)(C)C(O)(Cc1cnccn1)Cn1cncn1 (centres unmarked) [Example I-21] | 1.39^[a] | – | –
CC(C)C(C)(C)C1(Cc2ccnc(Cl)c2)CO1 (centres unmarked) [XII-11] | – | 3.94^[a] | –
CCC(C)(C)C(O)(Cc1ccnc(Cl)c1)Cn1cncn1 (centres unmarked) [Example I-14] | 2.27^[a] | – | Eff. % (Sphaerotheca fuliginea; 100 ppm of active ingredient): 100%; Eff. % (Botrytis cinerea): 87%
CCC(C)(C)C1(Cc2cc(F)ncc2Cl)CO1 (centres unmarked) [XII-19] | – | 4.17^[a] | –
CCC(C)(C)C1(Cc2c(Cl)cncc2Cl)CO1 (centres unmarked) [XII-22] | – | 4.41^[a] | –
CC(C)(C)C1(Cc2c(Cl)cncc2Cl)CO1 (centres unmarked) [XII-21] | – | 3.89^[a] | –
CC(C)(C)C(O)(Cc1cc(Cl)cc(Cl)n1)Cn1cncn1 (centres unmarked) [Example I-11] | 2.86^[a] | – | –
CC(C)(C)C(O)(Cc1cncc(Cl)n1)Cn1cncn1 (centres unmarked) [Example I-17] | 1.89^[a] | – | –
CC(C)(C)C(O)(Cc1ccc(Cl)c(Cl)n1)Cn1cncn1 (centres unmarked) [Example I-12] | 2.78^[a] | – | –
CC(C)(C)C(O)(Cc1cnc2ccccc2c1)Cn1cncn1 (centres unmarked) [Example I-1] | 1.18^[a] | – | –
CC(C)CCC(O)(Cc1ccncc1Cl)Cn1cncn1 (centres unmarked) [Example I-31] | 2.00^[a] | – | Eff. % (Puccinia recondita): 89%; Eff. % (Sphaerotheca fuliginea; 500 ppm of active ingredient): 100%; Eff. % (Uromyces appendiculatus; 500 ppm of active ingredient): 96%; Eff. % (Septoria tritici): 100%
CC(C)(C)C(O)(Cc1cc(Cl)ncc1F)Cn1cncn1 (centres unmarked) [Example I-16] | 2.16^[a] | – | Eff. % (Sphaerotheca fuliginea; 100 ppm of active ingredient): 100%; Eff. % (Uromyces appendiculatus; 100 ppm of active ingredient): 84%
CC(C)C(C)(C)C(=O)Cc1ccncc1Cl [Example V-6] | – | 3.00^[a] | –
CC(C)(C)C1(Cc2ccncc2F)CO1 (centres unmarked) [XII-7] | – | 2.31^[a] | –
CC(C)(C)C(O)(Cc1cc(Cl)ccn1)Cn1cncn1 (centres unmarked) [Example I-22] | 1.87^[a] | – | –
COC(C)(C)C(O)(Cc1ccncc1Cl)Cn1cncn1 (centres unmarked) [Example I-26] | 1.48^[a] | – | Eff. % (Puccinia recondita): 89%; Eff. % (Sphaerotheca fuliginea; 500 ppm of active ingredient): 100%; Eff. % (Uromyces appendiculatus; 500 ppm of active ingredient): 100%; Eff. % (Pyrenophora teres): 71%; Eff. % (Septoria tritici): 97%
CCC(C)(C)C1(Cc2cc(Cl)ncc2F)CO1 (centres unmarked) [XII-14] | – | 3.89^[a] | –
CCOC(=O)OC(Cc1cccnc1Cl)(Cn1cncn1)C(C)(C)C (centres unmarked) [Example I-24] | 2.67 | – | Eff. % (Puccinia recondita): 86%; Eff. % (Sphaerotheca fuliginea; 500 ppm of active ingredient): 100%; Eff. % (Uromyces appendiculatus; 500 ppm of active ingredient): 97%; LogP (pH 7.8): 2.56; Eff. % (Pyrenophora teres): 75%; Eff. % (Septoria tritici): 100%
CC(C)(C)C(=O)Cc1cccnc1 [Example V-7] | – | 0.41 | LogP [4]: 1.71
